Measurements reported in patent publication US11090273B2, “Tagged poly(ester amide urethane)s, nanoparticles formed from same, and uses thereof” (Cornell University, priority 2016, dated 2021).

Columns and labels:
HeLa cells = assay: Mitochondrial membrane potential (ΔΨm) change, JC-1 flow cytometry; assay type: cell-based; conditions: 2 μg/mL GA equivalent (CCCP 50 μM), 24 h
A549 cells = assay: as above; assay type: cell-based, human; conditions: 2 μg/mL GA equivalent (CCCP 50 μM), 24 h
HCT116 cells = assay: Cellular apoptosis by flow cytometry (Annexin V-FITC/PI); assay type: cell-based, human; conditions: HCT 116; 2 μg/mL GA or equal amount loaded; 24 h
Description: Apoptosis was assessed using staining with Annexin V-FITC/PI apoptosis detection kit (Affymetrix, CA) according to the manufacturer's instruction followed by flow cytometry analysis.

[1] = test system: MMP-2 and MMP-9 activity of A549 cells; assay: Gelatin zymography of MMP activity; assay type: cell-based, human; conditions: 0.6 μg/mL GA equivalent, serum-free media, 16 h
[2] = test system: MCF-7 human breast cancer xenograft tumor; conditions: xenograft tumor at end of study
Description: In vivo xenograft Protocols Used. Female BALB/c nude mice, 8-weeks old, were obtained from the Laboratory Animal Services Centre, The Chinese University of Hong Kong. Mice were kept at room temperature 23±2° C. with an alternating 12-h light-dark cycle, and were allowed access to food and water ad libitum.
Before inoculation, 10 mg/kg Estradiol benzoate was given into mice through intraperitoneal (IP) injection with 2-day intervals. MCF-7 cells (4×10^6 cells per mouse) were suspended in PBS and inoculated subcutaneously into the left flank of each mouse, and tumor growth was monitored regularly. […] Equal volumes of saline were used as solvent for the free drug groups.
The therapy was continued six times at 2-day intervals through tail vein injection. Estradiol benzoate was also IP injected into mice at 2-day intervals during administration. The antitumor activity of the tested formulations was estimated by recording the changes in tumor mass. Tumor volumes were monitored by recording the tumor length and width with a caliper then calculated using the equation, V=0.5×a×b^2, where V is tumor volume (mm), a is tumor length (mm), and b is tumor width (mm). Mice were sacrificed on the 12th day after administration, and the tumors were weighed. […]

Compound	percentage of cell population with severe loss of ΔΨm (HeLa cells) [%]	percentage of cell population with severe loss of ΔΨm (A549 cells) [%]	percentage of dead cells (HCT116 cells) [%]	percentage of healthy cells (HCT116 cells) [%]	percentage of late apoptotic cells (HCT116 cells) [%]	MMP band size and intensity / MMP activity (gelatin zymography) [1]	H&E staining: vacuoles in the tumor tissue [2]
N#CC(C#N)=NNc1cccc(Cl)c1 [CCCP, carbonyl cyanide 3-chlorophenylhydrazone]	60.0	89.7					
CC(C)=CCC[C@]1(C)C=Cc2c(O)c3c(c(CC=C(C)C)c2O1)O[C@]12C(=C[C@@H]4C[C@H]1C(C)(C)O[C@@]2(C/C=C(/C)C(=O)O)C4=O)C3=O [GA, Gambogic acid]	29.7	60.1	27.7	68.1	2.0	reduced when comparing to the control sample	fewer vacuoles
